In patent publication US12318365B2, “Inhibition of dipeptide repeat proteins” (ALS Therapy Development Institute, priority 2019, dated 2025):
“Also recorded” adds a separate entry of the source.

How the values were obtained:
NSC-34 cells = assay: LDH assay (cytotoxicity) in NSC-34 cells; type: cell-based; settings: for toxicity independently of GR and PR treatment: no DRP
Text: LDH Assay: The LDH assay is a colorimetric assay that measures cell toxicity and death. […] When cells lose membrane integrity, an enzyme found in living cells called lactate dehydrogenase (LDH) is released into the solution surrounding the dying cell. A form of programmed cell death, apoptosis, as well as other forms of cell death also ultimately lead to a cell's membrane being destroyed, resulting in a large release of LDH into the extracellular space. Thus, LDH is an excellent marker not only for necrosis, but for all instances of cell death. In an LDH assay, a sample of the solution surrounding the cell is isolated, and transferred to a plate containing an LDH reaction mixture. This reaction mixture contains a tetrazolium salt intermediate and other reaction constituents that, when exposed to LDH, convert the tetrazolium salt into a colored Formazan product. This Formazan product can be quantified spectrophotometrically. Greater absorbance readings correspond to more cell death.
One row on the top and bottom of the plate, and two columns on either side of the plate, were left without cells and contained culture medium only to minimize experimental well volume evaporation. After plating, cells were incubated for 24 h at 37° C., 5% CO2 prior to DRP and/or PRMT inhibitor addition. At time of DRP/PRMT inhibitor addition, desired doses of DRP for challenge and inhibitor for treatment were achieved by diluting aliquots of each stock in warm culture medium. During experiments where both PRMT inhibitors and DRPs were used, PRMT inhibitors were always applied to wells first, and followed by DRP application. […] Inhibitor toxicity controls were included as wells treated with the desired doses of drug for the experiment, but no DRP. DRP toxicity controls were included as wells only treated with the doses of DRP used for challenge. Once dosed, plates were incubated for 24 h at 37° C., 5% CO2 prior to running the WST-1 or LDH assay endpoints. Additional controls needed for each endpoint are specified in the “WST-1 Assay” and “LDH Assay” sections of these methods.
LDH Assay: Cells were plated and prepared using the steps described in the “Plating NSC-34 and Dosing with DRPs and PRMT Inhibitors” section of these methods. Other controls for this experiment included several sets of wells with only cells in culture medium (one triplicate designated for “untreated,” one triplicate designated for “lysed” positive control), and wells with culture medium only. An additional control added only to the transfer plate at time of testing was 5 μL LDH only. Testing was performed using colorimetric LDH-Cytotoxicity Assay Kit II (Abcam, Cambridge, MA, USA) per manufacturer's instructions. Final read at 450 nm was performed on a SpectraMax M3 Microplate Reader (Molecular Devices, San Jose, CA, USA). Data analysis included calculation of % LDH release using the following equation: […]
Experiments included three replicates per condition. Each experiment was repeated twice (executed three times total).
(§1) The following conditions were plated in triplicate.
Plates were incubated for 24 h at 37° C., 5% CO2. Cells were tested and data were analyzed by LDH assay.
Cells were plated in culture medium in 2 96-well plates at a density of 3.7×10^4 cells per well, and incubated overnight at 37° C., 5% CO2.
as §1
Cells were plated in culture medium in 2 96-well plates at a density of 3.7×10^4 cells per well, and incubated overnight at 37° C., 5% CO2. […]
The following conditions were plated in triplicate. […]

[1] = system: asymmetrical arginine methylation of NSC-34 cells; assay: Cellular asymmetric arginine methylation (800/700 fluorescence readout) in NSC-34 cells; type: cell-based, Mouse; settings: 24 hour treatment
Procedure: On Day 0, NSC-34 Cells were plated in 48 wells of a 96 well plate, and CHO cells were plated in the other 48 wells of the same 96-well plate. NSC-34 cells were plated in DMEM/High glucose media. CHO cells were plated in Ham's F-12K (Kaighn's) Medium. Both cell lines were incubated overnight to reach approximately 50% confluency.
On Day 1, 24 wells of the NSC-34 cells and 24 wells of the CHO cells were treated with the following concentrations of MS023: 1 μM, 3 μM, 6 μM, 10 μM, 30 μM, and 60 μM. The cells were then incubated overnight.
On Day 2, 18 wells of the untreated NSC-34 cells and 18 wells of the untreated CHO cells were treated with the same concentrations of MS023 as those on Day 1. This left 6 wells of each cell line that never received MS023. Once MS023 was added, the cells were incubated overnight.
On Day 3, all media in the 96-well plate was removed and the cells were fixed with 3.7% Paraformaldehyde (PFA). Cells were then washed and permeabilized with 1×PBS/0.1% Triton X-100.
After removing the PBS/Triton wash, Odyssey Blocking Buffer (LI-COR, 927-40100) was applied to all wells and the plate sat at room temperature with moderate shaking for 90 minutes. After 90 minutes, the blocking buffer was removed and the cells were treated with a 1:500 dilution of the Anti-Asymmetric Di-Methyl Arginine Motif primary antibody (Cell Signaling Technology, #13522). Incubation with the primary antibody continued overnight at 4 degrees Celsius with no shaking.
On Day 4, the primary antibody solution was removed from the plate, and the cells were washed with 1×PBS/0.1% Tween 20. After washing, cells were given a secondary antibody mixture containing a 1:1000 dilution of IRDye 800 CW Anti-Rabbit antibody (LI-COR, 926-32211) and a 1:500 dilution of Cell Tag 700 Stain (LI-COR, 926-41090). The secondary antibody mixture remained on cells for 60 minutes with gentle shaking and protected from light.
(§2) After 60 minutes, the secondary antibody mixture was removed and the cells were again washed with 1×PBS/0.1% Tween 20. All wash buffer was then removed, and the plate was gently patted dry to remove excess solution. The plate was then read on the LI-COR Odyssey Classic Imaging System which provides results based on fluorescence. In this experiment, fluorescence occurred as a result of cellular, asymmetric arginine methylation. MS023 was given to cells for either 24 or 48 hours, with expectation for it to reduce cellular, asymmetric arginine methylation. Cell number per well was accounted for using the Cell Tag 700 Stain, which fluorescently labels total protein levels in a cell. To this effect, fluorescence from asymmetrical arginine methylation per well (800) was divided by fluorescence from the total protein level per well (700) to produce an outcome of 800/700.
On Day 1, 24 wells of the NSC-34 cells and 24 wells of the CHO cells were treated with the following concentrations of MS049: 0.2 μM, 1 μM, 2 μM, 10 μM, 20 μM, and 100 μM. The cells were then incubated overnight.
On Day 2, 18 wells of the untreated NSC-34 cells and 18 wells of the untreated CHO cells were treated with the same concentrations of MS049 as those on Day 1. This left 6 wells of each cell line that never received MS049. Once MS049 was added, the cells were incubated overnight.
as §2, with “MS049” for “MS023”, “To this effect, fluorescence from asymmetrical arginine methylation per well (800) was divided by fluorescence from the total protein level per well (700) to produce an outcome of 800/700.” left out

## CNCCN1CCC(OCc2ccccc2)CC1 [MS049]
NSC-34 cells; 3 μM GR15, 24 h, dose range of the example
  dose dependence of abrogation of GR15-induced cytotoxicity: dose-dependently abrogated
NSC-34 cells; 3 μM GR15, 24 h, doses 0.2, 1, 2, 20 and 100 μM
  abrogation of GR-induced toxicity: partially abrogated
NSC-34 cells; 3 μM GR15, 24 h, doses 2 and 10 μM
  abrogation of GR-induced toxicity: completely abrogated
NSC-34 cells; 3 μM GR15, doses 1 and 20 μM
  abrogation of GR15-induced cytotoxicity: partially abrogated
NSC-34 cells; 3 μM PR15, 24 h, dose range of the example
  dose dependence of abrogation of PR15-induced cytotoxicity: dose-dependently abrogated
NSC-34 cells; 3 μM PR15, 24 h, doses 0.2, 1, 2, 20 and 100 μM
  abrogation of PR-induced toxicity: partially abrogated
NSC-34 cells; 3 μM PR15, 24 h, doses 2 and 10 μM
  abrogation of PR-induced toxicity: completely abrogated
NSC-34 cells; 3 μM PR15, doses 1 and 20 μM
  abrogation of PR15-induced cytotoxicity: partially abrogated
NSC-34 cells; doses 100 and 20 μM
  toxicity independently of GR and PR treatment: did cause significant toxicity; also recorded: did cause significant cytotoxicity
NSC-34 cells; other doses tested (0.2, 1, 2, 10 μM)
  toxicity independently of GR and PR treatment: not at other doses tested
[1]; 1 μM, vs untreated cells
  decrease of asymmetrical arginine methylation: approximately 17%
[1]; 100 μM
  decrease of asymmetrical arginine methylation: ~39%
